Results on six molecules are retold here after US11440880B2, “Thalidomide analogs and methods of use” (The USA, as represented by the Secretary, Department of …, priority 2015, dated 2022).

The test system of series [1] is nitrite levels in the culture media. Briefly: Nitrite level (Griess Reagent System) in LPS-challenged RAW 264.7 cells. The note with it: LPS 30 or 60 ng/mL, 24 h. It counts as cell-based, mouse. Further details: key: NS=not significant; a “+” sign=anti-inflammatory or increased cell numbers; a “−” sign=cell toxicity or pro-inflammatory. In short, it runs like this:
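RAW 264.7 cells pretreated 1 h with compound in DMSO vehicle, then challenged with LPS (30 or 60 ng/mL) for 24 h at 37° C. Conditioned-media nitrite by Griess (520 nm, sodium nitrite standard curve, 1.5 μM cutoff) in μM; mouse TNF-α by ELISA as pg/ml or % change from control.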
(In general: Griess reagent forms a coloured azo dye with nitrite.)

Series [2] relates to human saphenous vein sections (microvessel outgrowth). Briefly: Human saphenous vein assay of angiogenesis (ex vivo). It counts as cell-based. The note with it: for vessel outgrowth: 10 days of incubation; for inhibition of vessel outgrowth: in words. Here is the method: The saphenous vein was cleaned of subcutaneous tissue and embedded in Matrigel® matrix as previously described. After 10 days of incubation, the transverse sections of the veins were imaged. The outgrowth between the vehicle and no treatment (media) control was equivalent (106.65%±20.14, n=2 and 103.35%±4.06, n=2 respectively; FIGS. 13A and 13B).

Series [3] relates to 59 cancer cell lines. Briefly: One-dose anti-cancer screening in 59 cancer cell lines. It counts as cell-based. As to conditions: 1×10^−5 M; with the exception of leukemic cell lines. The text has this:
As well as being immunomodulatory and anti-angiogenic, lenalidomide and pomalidomide are directly cytotoxic to cancer cells. […] Compounds 29 and 86 were screened at a concentration of 1×10^−5 M (FIGS. 11 and 12, respectively). Calculated values from 0-100 indicate growth inhibition relative to a no-drug control, and values less than 0 indicate lethality, relative to the number of cells at time zero. A value of 100 means no growth inhibition. A value of 40 means 60% growth inhibition. A value of 0 means no net growth over the course of the experiment. A value of −40 means 40% lethality. A value of −100 means all cells are dead.

A short description of series [4]: Maximum tolerated dose in SCID mice. The class given is in vivo. The note with it: 3× per week; for deaths / drug-related toxicity / weight loss: 5 mg/kg and 10 mg/kg IV; for MTD: SCID, mouse, in vivo, IV, read-out: selected dose from the maximum tolerated dose study. The text has this: (§1) Compounds 29 and 86 were selected for in vivo efficacy studies of human prostate cancer. Mice positive for the severe combined immune deficieny (SCID) spontaneous mutation Prkdc^scid are deficient in functional T cells and B cells, have reduced levels of gamma globulins and lymphopenia (low white blood cell count). Due to their comprised immune system, SCID mice are amenable to xenogeneic grafts. Before starting the efficacy study, a maximum tolerated dose was established for each compound. Compound administration was by tail vein injection (IV) with a 27-gauge needle. A volume of 100 uL per 25 g of body weight was injected for each compound and dose. Compounds 29 and 86 were formulated in 12% DMSO and 88% TPGS (tocopherol polyethylene glycol succinate) in distilled sterile water. This formulation was well tolerated in vehicle control mice. The maximum tolerated dose was defined as the highest dose at which 100% of animals could tolerate treatment with mild or no toxicity for a minimum of one week of treatment. Initially, each compound was administered 3× per week to five mice per group, at 5 and 10 mg/kg. Each dose level was monitored for at least one week. […] Animals were weighed daily during the treatment courses. […] The selected dose for further experimentation was therefore 10 mg/kg.

Series [5] in a line: Precipitation of the IV formulation. It counts as physicochemical. As to conditions: 20 mg/kg; 12% DMSO and 88% TPGS in distilled sterile water.
Excerpt: as §1

The subject of series [6] is PC3 cells (xenografted tumors). The experiment in a line: PC3 xenograft efficacy in SCID mice. The class given is in vivo. As to conditions: 10 mg/kg; for tumor burden: day 0 to day 24.
Excerpt: as §1
When the tumors of SCID mice xenografted with PC3 cells were palpable, mice were dosed with 10 mg/kg of compound 29 or compound 86, or given the vehicle alone. From day 0 to day 24, the tumor sizes in vehicle-treated animals increased by 301.33% (FIG. 15, tumor size=401.33%±35.98%).

Series [7] deals with WT zebrafish embryos. The experiment in a line: WT zebrafish embryo development / teratogenicity. The class given is in vivo, zebrafish (Danio rerio). The note with it: in words; at concentrations active in fli1:EGFP or mpo:GFP assays. The source says:
To determine the effects of the candidate compounds on embryonic development, two in vivo model systems (developing zebrafish and chicken embryos) were utilized.
Malformations in the development of the zebrafish embryo were noted, including inhibition of eye, otic vesicle and fin development (FIGS. 7A-7F). […] Embryos were screened at concentrations previously determined, in this study, to be anti-angiogenic or anti-inflammatory in the fli1:EGFP and mpo:GFP assays respectively.
Concentrations used in the WT zebrafish and chicken embryo assays to assess for teratogenesis, were equal to or higher than those utilized in the fil1:EGFP and mpo:GFP zebrafish assays

Regarding `O=C1CCC(N2C(=O)c3cccc([N+](=O)[O-])c3C2=O)C(=O)N1` (stereo not shown) [Compound 5], the Nitrite entry in series [1] (1 μM), in series [1] (10 μM), in series [1] (30 μM), in series [1] (60 μM) and in series [1] (100 μM) was “NS” in each case.

For the molecule `O=C1NC(=S)CCC1N1C(=O)c2cccc([N+](=O)[O-])c2C1=O` (stereo not shown) [Compound 7, 2-(2-Oxo-6-thioxo-3-piperidinyl)-4-nitro-1H-isoindole-1,3(2H)-dione], the Nitrite result in series [1] (1 μM) is listed as “NS”; in series [1] (10 μM), “NS”; in series [1] (30 μM) it was “+”; in series [1] (60 μM), “+”; in series [1] (100 μM), “+”.

Consider `Nc1cccc2c1CN(C1CCC(=O)NC1=O)C2=S` (stereo not shown) [Compound 29], for which the vessel outgrowth in series [2] (5 μM) is 155.12%±23.69; in series [2] (10 μM), 168.06%±14.87; in series [2] (50 μM), 102.38%±16.78; in series [2] (100 μM) it was 62.53%±13.69. Also, in series [2] (10 μM (FIGS. 13D, 13E)), the “inhibition of vessel outgrowth” value is recorded as “no inhibition”. Besides, in series [3], the “activity on cell growth / cytotoxicity” value is “very little activity”. Besides, the “deaths / drug-related toxicity” value in series [4] was “no animals died or needed to be euthanized due to drug-related toxicity”. In addition, the weight loss entry in series [4] is on record as “no significant weight loss”. Also, the MTD in series [4] worked out at 10 mg/kg. The “behaviour of the compound in the dosing solution” value in series [5] was “precipitate in the solution”. In addition, in series [6], the tumor burden entry is on record as “No reduction in tumor burden”.

`Nc1cccc2c1CN(C13CC4CC(CC(C4)C1)C3)C2=O` [Compound 77, 2,3-Dihydro-4-amino-2-(tricyclo[3.3.1.1^3,7]dec-1-yl)-1H-isoindol-1-one]: in series [7], the “effect on development / mortality of zebrafish embryos” value is on record as “no apparent effect on the development of the zebrafish embryo”. In addition, the Nitrite entry in series [1] (1 μM), in series [1] (10 μM) and in series [1] (30 μM) was “NS” in each case.

Regarding `CC(N1Cc2c(N)cccc2C1=O)C12CC3CC(CC(C3)C1)C2` (stereo not shown) [Compound 81], the Nitrite entry is reported as “NS” in series [1] (1 μM), “NS” in series [1] (10 μM) and “+” in series [1] (30 μM).

As for `O=C1c2ccccc2CN1C12CC3CC(CC(O)(C3)C1)C2` [Compound 86, 2,3-Dihydro-2-(tricyclo[3.3.1.1^3,7]dec-1-hydroxy-3-yl)-1H-isoindol-1-one], the Nitrite result in series [1] (1 μM), in series [1] (10 μM) and in series [1] (30 μM) was “NS” throughout. Further, the “inhibition of vessel outgrowth” value is given as “vastly reduced outgrowth” in series [2] (10 μM (FIGS. 13D, 13E)) and “inhibit outgrowth at all concentrations” in series [2] (all concentrations). Further, the “activity on cell growth / cytotoxicity” value in series [3] was “very little activity”. The “deaths / drug-related toxicity” value in series [4] is “no animals died or needed to be euthanized due to drug-related toxicity”. Moreover, the weight loss result in series [4] was “no significant weight loss”. The MTD in series [4] was found to be 10 mg/kg. Further, the “behaviour of the compound in the dosing solution” value in series [5] is recorded as “precipitate in the solution”. Besides, the tumor burden result in series [6] is listed as “No reduction in tumor burden”. Further, the “tumor size versus vehicle treated mice” value in series [6] (p=0.07) was “trend to separate”.
